From patent publication USRE37770E1, “Treatment of skin conditions by use of PPARα activators” (The Regents of the University of California, priority 1997, dated 2002)

How the values were obtained:
[1] = test system: Steroid Sulfatase; assay: Steroid sulfatase activity in epidermis of treated fetal rat skin explants; format: cell-based, rats; details: clofibrate (300 μM), juvenile hormone III (100 μ), mean of five ± SEM
Experimental: (§1) Epidermis was separated from dermis after incubation in 10 mM ethylenediamine tetraacetic acid (EDTA) in Ca^++- and Mg^++-free phosphate-buffered saline (PBS), pH 7.4, at 37° C. for 30-40 minutes. The tissues were then minced, and homogenized on ice (three times at 15 seconds each with a Polytron homogenizer, followed by sonication twice at ten seconds each at 35% power) in either PBS containing 0.1 mM phenylmethylsulfonyl fluoride (PMSF) and 0.1% Triton X-100 (for β-glucocerebrosidase) or in 10 mM Tris (PH 7.5) containing 0.15 M sucrose and 2 mM EDTA (for steroid sulfatase). β-Glucocerebrosidase activity was measured in the supernatant following centrifugation at 10,000×g for fifteen minutes at 4° C. Steroid sulfatase activity was measured in the microsomal fraction resulting from a […] centrifugation (10 minutes, 4° C.) followed by 60 minutes of 100,000×g ultracentrifugation at 4° C. Protein content was measured by conventional techniques.
Steroid sulfatase activity was measured by incubating 100 μg of microsomal protein in 0.1 M Tris containing 5.6 mM glucose (pH 7.4) with 15 μM, (^3H) dihydroepiandrosterone sulfate (DHEAS) (15 μCi) in a final volume of 1.1 mL The product, (^3H) DHEA, was extracted with benzene and an aliquot counted by scintillation spectrophotometry.
(§2) Skin explants from 17-day fetal rats were incubated for 24 or 48 hours in media individually containing clofibrate (300 μM) and juvenile hormone III […], and control media. Enzyme activity was measured and the results are presented in Table I as the mean values of five determinations±SEM (standard error of the mean). All p values are ≦0.005 compared with controls of the same time period.

[2] = test system: β-Glucocerebrosidase; assay: β-Glucocerebrosidase activity in epidermis of treated fetal rat skin explants; format: cell-based, rats; details: clofibrate (300 μM), juvenile hormone III (100 μ), mean of five ± SEM
Experimental: as §1
β-Glucocerebrosidase) activity was assayed using the synthetic substrate 4-methylumbelliferyl β-D-glucoside (4-MUG). The assays were performed in 5 mM sodium taurocholate in citrate-phosphate buffer (pH 5.6) with 0.5 mM 4-MUG for sixty minutes at 37° C., with a final assay volume of 100 μL, and protein concentration of 1-2 mg/mL. The reaction was terminated with 2 mL of carbonate-bicarbonate buffer (pH 10.5). The fluorescence was then measured at […] (excitation) and 450 λ (emission) and compared with a standard 4-methylumbelliferone (4-MU) curve.
as §2

[3] = test system: Skin explants from gestational day 17 rats; assay: Light and electron microscopy of fetal rat skin explants (epidermal maturation); format: cell-based; details: 300 μM, 48 hours
Experimental: Samples for light microscopy were fixed in modified Karnovsky's solution, plastic-embedded, and 0.5 μm sections were stained with toluidine. Samples for electron microscopy were minced into 1 mm^3 pieces, fixed in modified Karnovsky's fixative, and processed. Sections were stained with uranyl acetate and lead citrate, post-fixed in ruthenium tetroxide, and examined using a Zeiss 10A electron microscope.
Explants incubated in various media woe examined by light microscopy. The incubation di included control medium (containing no activators) and various media individually containing 300 μM clofibrate, 100 μM juvenile hormone III, 300 μM oleic acid, 30 μM linoleic acid, 50 μM farnesol, and various concentrations of 9-cis-retinoic acid, all-trans-retinoic acid, and 1,25-dihydroxy vitamin D3.
Observations were then made of the ultrastructural maturation of the outer epidermis in explants that had been incubated in the various media and then post-fixed in ruthenium tetroxide. Media identical to those of the preceding paragraph were used, excluding the retinoic acid-containing and 1,25-dihydroxy vitamin D3-containing media.

[4] = test system: Preconfluent keratinocytes; assay: Keratinocyte growth: DNA content (bis-benzimidazole fluorimetry); format: cell-based, human; details: mean of three samples
Experimental: Preconfluent keratinocytes were treated for 48 hours with varying concentrations of clofibrate ranging from 0 (vehicle only) to 400 μM, in both low (0.03 mM) calcium and high (1.2 mM) calcium. The treated keratinocytes were harvested and sonicated, and the resulting homogenates were incubated with 1 μL/mL bis-benzimidazole for two hours in the dark. DNA content was quantified by reading the samples on a spectrofluorimeter. Each value in the table is a mean of three samples.

[5] = test system: transglutaminase protein; assay: Transglutaminase protein level in keratinocytes by Western blotting; format: cell-based, Human; details: low calcium (0.03 mM), 24 hours
Experimental: Protein concentration was assessed by protein electrophoresis and Western blotting. Cells were lysed is 2% SDS and the lysate sonicated. Protein determinations were made by use of a Bicinchoninic add protein assay (Pierce Chemical Company, Rockford, Ill. USA). Following protein determination, equal amounts at protein (50 μg) were separated by electrophoresis an 7.5% polyacrylamide gels and electroblotted onto polyvinylidene […] membranes (0.2-μ, obtained from Bio-Rad Laboratories Hercules, Calif., USA). Involucrin protein was detected by incubation over-night at 4° C. C. with a polyclonal rabbit anti-human involucrin antibody (1:1000 dilution). The involucrin-specific bands on the autoradiograms were quantitated by densitometry by densitometry. Transglutaminase protein expression was measured in a similar […], using stacking, sample and running buffers containing 4 M urea, and the gels following electrophoresis were washed in 4 M urea, 25 mM TRIS-HCl, pH 7.4, 7.5 mM NaCl, 0.1 mM dithiothreitol (DTT), and 2 mM ethylenediamine tetraacetic acid for 90 minutes prior to electoblotting, allowing the transglutaminase to be detected by antibody. Specific bands on the autoradiograms were quantified by densitometry. Levels of involucrin and transglutaminase protein were measured in keratinocytes incubated in low calcium (0.03 mM) and treated with the test compounds for 24 hours. The are shown in the bar graph of FIG. 17a, where the test compounds are compared with the vehicle alone (control) and cholesterol, using the same bar indications as in FIGS 14 through 16. […] Cholesterol had no effect.

[6] = test system: keratinocytes; assay: Rate of DNA synthesis (3H-thymidine incorporation) in keratinocytes; format: cell-based, Human; details: 10 μM, 24 hours, low calcium (0.03 mM); 16-hour 3H-thymidine period
Experimental: The rate of DNA synthesis was determined by measuring the incorporation of ^3H-thymidine into cellular DNA after 16 hours of incubation with 2 μCi^3H-thymidine per mL of media (110 Ci/mmol methyl-1′,2′-^3H-thymidine (Amersham Laboratories, Arlington Heights, Ill. USA). The cells were then solubilized in 1N NaOH, and the radioactivity in the washed TCA precipitate was quantitated by scintillation spectroscopy.
Using the procedures set forth in the Materials and Methods section above, 25-hydroxycholesterol (10 μM) and 22(R)-hydroxycholesterol (10 μM, were compared with cholesterol (10 μM) and the vehicle alone control), with treatment for 24 hours under low calcium (0.03 mM) condition. The results are shown in the bar graph of FIG. 19.

CCOC(=O)C(C)(C)Oc1ccc(Cl)cc1 [clofibrate, 2-(4-chlorophenoxy)-2-methylpropanoic acid ethyl ester]
Steroid Sulfatase Activity ([1]; 24-Hour Incubation): 13.90 ± 1.10 pmol/h/mg | Steroid Sulfatase Activity ([1]; 48-Hour Incubation): 22.51 ± 2.60 pmol/h/mg | β-Glucocerebrosidase Activity ([2]; 24-Hour Incubation): 2.97 ± 0.30 nmol/min/mg | β-Glucocerebrosidase Activity ([2]; 48-Hour Incubation): 5.35 ± 0.89 nmol/min/mg | light microscopy of the epidermis [3]: had both a multi-layered stratum granulosum and a stratum corneum | DNA Content After 48 Hours ([4]; Clofibrate 50 μM): 14.9 ± 1.5 μg/dish | DNA Content After 48 Hours ([4]; Clofibrate 200 μM): 12.9 ± 1.1 μg/dish | DNA Content After 48 Hours ([4]; Clofibrate 400 μM): 11.0 ± 1.3 μg/dish

C[C@H](CCCC(C)(C)O)[C@H]1CC[C@H]2[C@@H]3CC=C4C[C@@H](O)CC[C@]4(C)[C@H]3CC[C@]12C [25-hydroxycholesterol]
TG'ase protein level relative to the control [5]: approximately 1.6 fold | rate of DNA synthesis [6]: 50 % of control
